From US5792851A, “Human prostaglandin transporter” (Albert Einstin College of Medicine of Yeshiva University, a …, priority 1996, dated 1998)

Legend:
[1] = molecular target: T1, human prostaglandin transporter (hPGT) (Homo sapiens, UniProt Q92959); assay: Timed uptake of tracer 3[H]-prostaglandins into HeLa cells expressing clone 3 (hPGT); assay type: cell-based; conditions: for difference between transport rates: 10 and 20 minutes; for 2-minute rank-order of uptakes: 2 minutes, 27° C., tracer 0.6-1.0 nM
[2] = molecular target: T1, human prostaglandin transporter (hPGT); assay: Inhibition of hPGT-mediated tracer PGE2 uptake in transfected HeLa cells; assay type: cell-based
rat PGT [3] = assay: Tracer prostaglandin transport by rat PGT re-expressed in HeLa cells; assay type: cell-based; conditions: data not shown
rat PGT [4] = conditions: reference 36; cited from earlier work
[5] = HeLa, 10 min, read-out: percent of the control 10-min tracer PGE2 uptake

| Compound | difference between transport rates [1] | 2-minute rank-order of uptakes [1] | remaining activity at 10 µM [2, 5] | remaining activity at 100 µM [2, 5] | remaining activity at 0.1 µM [2, 5] | further results |
| --- | --- | --- | --- | --- | --- | --- |
| CCCCC[C@H](O)/C=C/[C@H]1[C@H](O)CC(=O)[C@@H]1C/C=C\CCCC(=O)O [PGE2] | essentially no difference | PGE2 >PGE1>PGF2α >PGD2 >TxB2 |  |  |  |  |
| NS(=O)(=O)c1cc(C(=O)O)c(NCc2ccco2)cc1Cl [Furosemide] |  |  | 91.5 ± 3.3% | 63.3 ± 1.7% |  |  |
| COc1ccc2c(c1)c(CC(=O)O)c(C)n2C(=O)c1ccc(Cl)cc1 [Indomethacin] |  |  | 114 ± 3.8% | 82.5 ± 1% |  | potency as inhibitor of hPGT (in words) [2]: much less effective |
| CCCCC[C@H](O)/C=C/[C@H]1C(=O)C[C@H](O)[C@@H]1C/C=C\CCCC(=O)O [PGD2] | essentially no difference | PGE2 >PGE1>PGF2α >PGD2 >TxB2 |  |  | 47.9 ± 0.9% | transport rate of tracer relative to PGE2 (rat PGT [3]): at a rate equivalent to that of PGE2 |
| CCCCC[C@H](O)/C=C/[C@@H]1[C@@H](C/C=C\CCCC(=O)O)[C@@H](O)C[C@H]1O [PGF2α] | essentially no difference | PGE2 >PGE1>PGF2α >PGD2 >TxB2 |  |  | 45 ± 1.3% |  |
| CCCN(CCC)S(=O)(=O)c1ccc(C(=O)O)cc1 [Probenecid] |  |  | 104 ± 5.2% | 92.8 ± 2% |  | potency as inhibitor of hPGT (in words) [2]: much less effective |
| CCCCC[C@H](O)/C=C/[C@H]1[C@H](O)CC(=O)[C@@H]1CCCCCCC(=O)O [PGE1] | essentially no difference | PGE2 >PGE1>PGF2α >PGD2 >TxB2 |  |  | 50.8 ± 3.4% |  |
| CC#CCC(C)[C@H](O)/C=C/[C@@H]1[C@H]2C/C(=C/CCCC(=O)O)C[C@H]2C[C@H]1O (stereo partly shown) [iloprost] |  |  |  |  |  | transport above baseline ([1]; 3[H]-iloprost 7.9 nM, data not shown): not transported above baseline |
| CCCCC[C@H](O)/C=C/[C@H]1OC(O)C[C@H](O)[C@@H]1C/C=C\CCCC(=O)O (stereo partly shown) [TxB2] |  | PGE2 >PGE1>PGF2α >PGD2 >TxB2 |  |  |  | transport rate relative to PGE2 or PGF2α (rat PGT [4]): about half that of PGE2 or PGF2α; transport rate relative to PGE2 or PGF2α ([1]; hPGT, FIG. 2): about half that of PGE2 or PGF2α; remaining activity at 0.5 µM [2, 5]: 26.7 ± 0.1% |
